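Five concentrations, 48 hours, 96-well plates. GI50 marks 50% less growth.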 Activity calls are given as the source filed them. Cut-off read from the data, not from the text of the source: active = GI50 up to about 1.1 µM and inactive = higher.
Experiments:
Experiment in all cases: NCI anticancer screen, dose series, 48 h
SW-620 = test system: SW-620
UACC-257 = test system: UACC-257
COLO 205 = test system: COLO 205
HCT-116 = test system: HCT-116
SF-539 = test system: SF-539
HL-60 = test system: HL-60
OVCAR-5 = test system: OVCAR-5
NCI/ADR-RES = test system: NCI/ADR-RES
Hs-578T = test system: Hs-578T
NCI-H522 = test system: NCI-H522
A549 = test system: A549
HCC 2998 = test system: HCC 2998
LOX IMVI = test system: LOX IMVI
PC-3 = test system: PC-3
TK-10 = test system: TK-10
K562 = test system: K562
SF-268 = test system: SF-268
NCI-H23 = test system: NCI-H23

Structure (SMILES): CC#CC(O)(C(=O)OC1CCCN(C)C1)C1=CC=CCC1 (stereo unspecified)
- GI50 (SW-620): > 100 µM (inactive)
- GI50 (UACC-257): > 100 µM (inactive)
- GI50 (COLO 205): > 100 µM (inactive)
- GI50 (HCT-116): > 100 µM (inactive)
- GI50 (SF-539): > 100 µM (inactive)
- GI50 (HL-60): > 100 µM (inactive)
- GI50 (OVCAR-5): > 100 µM (inactive)
- GI50 (NCI/ADR-RES): 0.49 µM (active)
- GI50 (Hs-578T): > 100 µM (inactive)
- GI50 (NCI-H522): > 100 µM (inactive)
- GI50 (A549): > 100 µM (inactive)
- GI50 (HCC 2998): > 100 µM (inactive)
- GI50 (LOX IMVI): > 100 µM (inactive)
- GI50 (PC-3): > 100 µM (inactive)
- GI50 (TK-10): > 100 µM (inactive)
- GI50 (K562): > 100 µM (inactive)
- GI50 (SF-268): > 100 µM (inactive)
- GI50 (NCI-H23): > 100 µM (inactive)

Structure (SMILES): O=C1/C(=C/c2ccc(Cl)cc2)N=C(c2ccccc2)N1c1ccc(S(=O)(=O)Nc2nccs2)cc1
- GI50 (SW-620): 39.8 µM (inactive)
- GI50 (UACC-257): 32.7 µM (inactive)
- GI50 (COLO 205): 20.6 µM (inactive)
- GI50 (HCT-116): 33.5 µM (inactive)
- GI50 (SF-539): 88.3 µM (inactive)
- GI50 (HL-60): 30.5 µM (inactive)
- GI50 (OVCAR-5): > 100 µM (inactive)
- GI50 (NCI/ADR-RES): 60.5 µM (inactive)
- GI50 (Hs-578T): 64.4 µM (inactive)
- GI50 (A549): 52.4 µM (inactive)
- GI50 (HCC 2998): 18.9 µM (inactive)
- GI50 (LOX IMVI): 31.7 µM (inactive)
- GI50 (PC-3): 31.6 µM (inactive)
- GI50 (TK-10): 70.5 µM (inactive)
- GI50 (K562): 33 µM (inactive)
- GI50 (SF-268): 50.8 µM (inactive)
- GI50 (NCI-H23): 52.2 µM (inactive)

Structure (SMILES): COc1ccc(S(=O)(=O)Nc2ccc(-c3csc(N4C(=O)/C(=C/c5ccccc5)N=C4c4ccccc4)n3)cc2)cc1Cl
- GI50 (SW-620): 43.7 µM (inactive)
- GI50 (UACC-257): 30.9 µM (inactive)
- GI50 (COLO 205): 34.5 µM (inactive)
- GI50 (HCT-116): 35.3 µM (inactive)
- GI50 (SF-539): 41.6 µM (inactive)
- GI50 (HL-60): 24.6 µM (inactive)
- GI50 (OVCAR-5): 47.2 µM (inactive)
- GI50 (NCI/ADR-RES): 45.4 µM (inactive)
- GI50 (Hs-578T): 37.5 µM (inactive)
- GI50 (NCI-H522): 39 µM (inactive)
- GI50 (A549): 35.1 µM (inactive)
- GI50 (LOX IMVI): 32.5 µM (inactive)
- GI50 (PC-3): 25.4 µM (inactive)
- GI50 (TK-10): 47.4 µM (inactive)
- GI50 (K562): 34.3 µM (inactive)
- GI50 (SF-268): 31.4 µM (inactive)
- GI50 (NCI-H23): 23.2 µM (inactive)

Structure (SMILES): CNC(=O)c1nn[nH]c1O
- GI50 (SW-620): > 100 µM (inactive)
- GI50 (UACC-257): > 100 µM (inactive)
- GI50 (COLO 205): > 100 µM (inactive)
- GI50 (HCT-116): > 100 µM (inactive)
- GI50 (HL-60): > 100 µM (inactive)
- GI50 (OVCAR-5): > 100 µM (inactive)
- GI50 (NCI/ADR-RES): > 100 µM (inactive)
- GI50 (Hs-578T): 98.4 µM (inactive)
- GI50 (NCI-H522): > 100 µM (inactive)
- GI50 (A549): > 100 µM (inactive)
- GI50 (HCC 2998): > 100 µM (inactive)
- GI50 (LOX IMVI): > 100 µM (inactive)
- GI50 (PC-3): > 100 µM (inactive)
- GI50 (K562): > 100 µM (inactive)
- GI50 (SF-268): > 100 µM (inactive)
- GI50 (NCI-H23): > 100 µM (inactive)

Structure (SMILES): COc1cc(C2c3cc4c(cc3[C@@H](N(C)C)[C@H]3COC(=O)C23)OCO4)cc(OC)c1O (stereo partly specified)
- GI50 (SW-620): 38.1 µM (inactive)
- GI50 (UACC-257): 67.9 µM (inactive)
- GI50 (COLO 205): 39.4 µM (inactive)
- GI50 (HCT-116): 38 µM (inactive)
- GI50 (SF-539): 21 µM (inactive)
- GI50 (HL-60): 33.4 µM (inactive)
- GI50 (OVCAR-5): > 100 µM (inactive)
- GI50 (NCI-H522): 4.4 µM (inactive)
- GI50 (A549): 45.9 µM (inactive)
- GI50 (HCC 2998): 53.6 µM (inactive)
- GI50 (LOX IMVI): 33.3 µM (inactive)
- GI50 (TK-10): > 100 µM (inactive)
- GI50 (K562): 27.3 µM (inactive)
- GI50 (SF-268): 46.7 µM (inactive)
- GI50 (NCI-H23): 37.7 µM (inactive)

Structure (SMILES): C[C@]12CCCC(=O)C1(O)C[C@H](C(=O)O)CC2 (stereo partly specified)
- GI50 (SW-620): > 100 µM (inactive)
- GI50 (UACC-257): > 100 µM (inactive)
- GI50 (COLO 205): > 100 µM (inactive)
- GI50 (HCT-116): > 100 µM (inactive)
- GI50 (SF-539): > 100 µM (inactive)
- GI50 (HL-60): > 100 µM (inactive)
- GI50 (OVCAR-5): > 100 µM (inactive)
- GI50 (NCI-H522): > 100 µM (inactive)
- GI50 (A549): > 100 µM (inactive)
- GI50 (HCC 2998): > 100 µM (inactive)
- GI50 (LOX IMVI): > 100 µM (inactive)
- GI50 (TK-10): > 100 µM (inactive)
- GI50 (K562): > 100 µM (inactive)
- GI50 (SF-268): > 100 µM (inactive)
- GI50 (NCI-H23): > 100 µM (inactive)

Structure (SMILES): COc1cccc2c1C(=O)c1c(O)c3c(c(O)c1C2=O)C[C@@](O)(C(=O)CO)CC3OC1CC(N(C)CCOCC(OC(C)=O)OC(C)=O)C(O)C(C)O1 (stereo partly specified)
- GI50 (SW-620): > 0.01 µM (active)
- GI50 (UACC-257): > 0.01 µM (active)
- GI50 (SF-539): > 0.01 µM (active)
- GI50 (HL-60): > 0.01 µM (active)
- GI50 (OVCAR-5): > 0.01 µM (active)
- GI50 (NCI-H522): > 0.01 µM (active)
- GI50 (A549): > 0.01 µM (active)
- GI50 (HCC 2998): > 0.01 µM (active)
- GI50 (LOX IMVI): > 0.01 µM (active)
- GI50 (TK-10): > 0.01 µM (active)
- GI50 (K562): > 0.01 µM (active)
- GI50 (SF-268): > 0.01 µM (active)
- GI50 (NCI-H23): > 0.01 µM (active)
